In patent US10844023B2 (Washington University, priority 2017, dated 2020):

These compounds were tested on Mfn2 null MEFs (assay: Mitochondrial elongation (aspect ratio) fusogenicity assay). Details: Mfn2 null MEFs, overnight; treatment with 1 μM compound (footnote).
Format: cell-based, mouse
Design: % long compare to B: dose or concentration left out as unconfirmed
Description: A cultured murine embryonic fibroblast assay system was used in which mitochondrial elongation (an increase in aspect ratio) reflects enhanced mitochondrial fusion.
A pharmacophore model was generated based on the interactions of HR1 and HR2 domains in the calculated structural model of Mfn2 in the closed conformation. The key features included hydrophobic interactions involving Mfn2 HR1: Val372 and Met376, and aromatic interactions and hydrogen bonding involving Mfn2 HR1 His380. […] A library comprising ˜14 million commercially available compounds was prepared in silico and evaluated using PHASE to fit these criteria. Top ranked hits were clustered, and filtered based on pharmacological properties using Qikprop. The top 55 (see TABLE 4) commercially available small molecules conforming to the model were selected for functional screening and purchased in 1 mg aliquots. […] Images were acquired by confocal microscopy. Each compound was scored for fusogenicity (see e.g., FIG. 24A) and % cell death (see e.g., FIG. 24B).
Cells were excited with 408 nm (Hoechst), […] (MitoTracker Green and Calcein AM, GFP), or 637 nm (TMRE, MitoTracker Orange, Ethidium homodimer-1, and AF594-Dextran) laser diodes. For mitochondrial elongation studies mitochondrial aspect ratio (long axis/short axis) was calculated using automated edge detection and Image J software. Mitochondrial depolarization was calculated as % of green mitochondria visualized on MitoTracker Green and TMRE merged images, expressed as green/(green+yellow mitochondria)×100.

Structure (SMILES) | Aspect ratio (MEAN ± SEM)
O=C(Nc1cc(CSCCOC(=O)C2C3CCCCC32)ccn1)C1C2CCCCC21 (centres unmarked) [2-{[(2-{bicyclo[4.1.0]heptane-7-amido}pyridin-4-yl)methyl]sulfanyl}ethyl bicyclo[4.1.0]heptane-7-carboxylate] | 4.8 ± 1.0

Same assay, conditions: mitochondrial elongation relative to Cpd B (B01 = 100); Mfn2 null MEFs, compound overnight as printed (FIG. 48)

Structure (SMILES) | % long compare to B [%]
NC(=O)c1c(NC(=O)CSc2nnc(-c3cccnc3)n2-c2ccccc2)sc2c1CCC2 [1-F11, 2-(2-{[4-phenyl-5-(pyridin-3-yl)-4H-1,2,4-triazol-3-yl]sulfanyl]acet-amido)-4H,5H,6H-cyclopenta[b]-thiophene-3-carboxamide] | 13
Cc1ccccc1-n1c(SCC(=O)Nc2sc3c(c2C(N)=O)CCC3)nnc1-c1cccnc1 [1-G1, 2-(2-{[4-(2-methylphenyl)-5-(pyridin-3-yl)-4H-1,2,4-triazol-3-yl]sulfanyl}acet-amido)-4H,5H,6H-cyclopenta[b]thiophene-3-carboxamide] | 141
NC(=O)c1c(NC(=O)CSc2nnc(-c3ccccc3)n2-c2ccccc2)sc2c1CCCC2 [1-G2, 2-{2-[(diphenyl-4H-1,2,4-triazol-3-yl)sulfanyl]acetamido}-4,5,6,7-tetrahydro-1-benzothiophene-3-carboxamide] | 20
CC(Sc1nnc(C2CC2)n1-c1ccccc1)C(=O)Nc1sc2c(c1C#N)CCCCC2 (centres unmarked) [1-G5, N-{3-cyano-4H,5H,6H,7H,8H-cyclohepta[b]thiophen-2-yl}-2-[(5-cyclopropyl-4-phenyl-4H-1,2,4-triazol-3-yl)sulfanyl]propana-mide] | 7
CC(Sc1nnc(Cc2cccs2)n1C1CC1)C(=O)Nc1sc2c(c1C(N)=O)CCC2 (centres unmarked) [1-G6, 2-[2-({4-cyclopropyl-5-[(thiophen-2-yl)methyl]-4H-1,2,4-triazol-3-yl}sulfanyl)propanamido]-4H,5H,6H-cyclopenta[b]thio-phene-3-carboxamide] | 9
CC(Sc1nccn1Cc1ccccc1)C(=O)Nc1sc2c(c1C(N)=O)CCC2 (centres unmarked) [1-G7, 2-{2-[(1-benzyl-1H-imidazol-2-yl)sulfanyl]propanamido}-4H,5H,6H-cyclopenta[b]thio-phene-3-carboxamide] | 3
CC(Sc1nncn1-c1ccccc1)C(=O)Nc1sc2c(c1C(N)=O)CCC2 (centres unmarked) [1-G8, 2-{2-[(4-phenyl-4H-1,2,4-triazol-3-yl)sulfanyl]propanamido}-4H,5H,6H-cyclopenta[b]thio-phene-3-carboxamide] | 14
Cc1nnc(SCC(=O)Nc2sc3c(c2C(N)=O)CCC3)n1-c1ccccc1 [1-H3, 2-{2-[(5-methyl-4-phenyl-4H-1,2,4-triazol-3-yl)sulfanyl]acet-amido}-4H,5H,6H-cyclo-penta[b]thiophene-3-carboxamide] | 10
NC(=O)c1c(NC(=O)CSc2nnc(-c3ccncc3)n2-c2ccc(F)cc2)sc2c1CCC2 [1-H5, 2-(2-{[4-(4-fluorophenyl)-5-(pyridin-4-yl)-4H-1,2,4-triazol-3-yl]sulfanyl]acetamido)-4H,5H,6H-cyclopenta[b]thio-phene-3-carboxamide] | 23
CC(Sc1nnc(Cc2ccccc2)n1C)C(=O)Nc1sc2c(c1C(N)=O)CCC2 (centres unmarked) [1-H6, 2-{2-[(5-benzyl-4-methyl-4H-1,2,4-triazol-3-yl)sulfanyl]propanamido}-4H.5H.6H-cyclopenta[b]-thiophene-3-carboxamide] | 8
Cn1c(Cc2ccccc2)nnc1SCC(=O)Nc1sc2c(c1C(N)=O)CCC2 [1-H7, 2-{2-[(5-benzyl-4-methyl-4H-1,2,4-triazol-3-yl)sulfanyl]-acetamido}-4H,5H,6H-cyclopenta[b]thiophene-3-carboxamide] | 6
CC(Sc1nnc(-c2ccccc2)n1-c1ccccc1)C(=O)Nc1sc2c(c1C(N)=O)CCC2 (centres unmarked) [1-H8, 2-{2-[(diphenyl-4H-1,2,4-triazol-3-yl)sulfanyl]propan-amido}-4H,5H,6H-cyclo-penta[b]thiophene-3-carboxamide] | −4
O=C(NCCSCc1ccccc1)NC1CCCC1 [1-H9, 1-[2-(benzylsulfanyl)ethyl]-3-cyclopentylurea] | 29
NC(=O)c1c(NC(=O)CSc2nnc(C3CC3)n2Cc2ccccc2)sc2c1CCCC2 [1-H11, 2-{2-[(4-benzyl-5-cyclopropyl-4H-1,2,4-triazol-3-yl)-sulfanyl]acetamido}-4,5,6,7-tetrahydro-1-benzothiophene-3-carboxamide] | 15
Cn1c(CC(=O)Nc2ccccc2)nnc1SCC(=O)Nc1sc2c(c1C(=O)NCc1ccccc1)CCCC2 [2-A1, N-benzyl-2-[2-({4-methyl-5-[(phenylcarbamoyl)methyl]-4H-1,2,4-triazol-3-yl}sulfanyl)acetamido]-4,5,6,7-tetrahydro-1-benzothiophene-3-carboxamide] | 26
CCn1c(CCc2ccccc2)nnc1SCC(=O)Nc1sc2c(c1C(N)=O)CCC(C)C2 (centres unmarked) [2-A4, 2-(2-{[4-ethyl-5-(2-phenylethyl)-4H-1,2,4-triazol-3-yl]sulfanyl}acetamido)-6-methyl-4,5,6,7-tetrahydro-1-benzothiophene-3-carboxamide] | 3

Structure (SMILES) | % long compare to B [%]
Cc1nnc(SCC(=O)Nc2sc3c(c2C(N)=O)CCC3)n1C [2-A5, 2-{2-[(dimethyl-4H-1,2,4-triazol-3-yl)sulfanyl]acetamido}-4H,5H,6H-cyclopenta[b]thio-phene-3-carboxamide] | 2
CC(Sc1nnc(N2CCOCC2)n1Cc1ccccc1)C(=O)Nc1ccc2c(c1)OCO2 (centres unmarked) [A01, N-(2H-1,3-benzodioxol-5-yl)-2-{[4-benzyl-5-(morpholin-4-yl)-4H-1,2,4-triazol-3-yl]sulfanyl)propana-mide] | −14
O=C(NCCCCc1ccccc1)Nc1ccc(F)cc1 [A2, 3-(4-fluorophenyl)-1-(4-phenylbutyl)urea] | −4
Cc1cccc(NC(=O)NCCCCc2ccccc2)c1 [A3, 3-(3-methylphenyl)-1-(4-phenylbutyl)urea] | 32
Cc1ccc(NC(=O)NCCCCc2ccccc2)cc1 [A4, 3-(4-methylphenyl)-1-(4-phenylbutyl)urea] | 75
CC(Sc1ccc(Br)cc1)C(=O)Nc1ccc2c(c1)OCCO2 (centres unmarked) [A05, 2-[(4-bromophenyl)sulfanyl]-N-(2,3-dihydro-1,4-benzodioxin-6-yl)propanamide] | −2
Cc1ccccc1NC(=O)NCCCCc1ccccc1 [A5, 3-(2-methylphenyl)-1-(4-phenylbutyl)urea] | 7
Cc1ccc2c(c1)SC(C(=O)NCc1ccc(N3CCCN(C)CC3)nc1)C2 (centres unmarked) [A07, 6-methyl-N-{[6-(4-methyl-1,4-diazepan-1-yl)pyridin-3-yl]methyl}-2,3-dihydro-1-benzothiophene-2-carboxamide] | 14
CC(Sc1nc(CN2CCOCC2)nc2ccccc12)C(=O)Nc1cccc(C(F)(F)F)c1 (centres unmarked) [A08, 2-({2-[(morpholin-4-yl)methyl]quinazolin-4-yl}sulfanyl)-N-[3-(trifluoromethyl)-phenyl]propanamide] | 47
CC(Sc1nnc(N2CCOCC2)n1Cc1ccccc1)C(=O)Nc1ccc2c(c1)OCCO2 (centres unmarked) [A09, 2-{[4-benzyl-5-(morpholin-4-yl)-4H-1,2,4-triazol-3-yl]sulfanyl}-N-(2,3-dihydro-1,4-benzodioxin-6-yl)propanamide] | 55
CC1CCCCC1NC(=O)NCCSCc1ccccc1 (centres unmarked) [A10, 1-[2-(benzylsulfanyl)ethyl]-3-(2-methylcyclohexyl)urea] | 71
Cc1ccc(-n2nnnc2SC(C)c2nc(-c3nnc[nH]3)no2)cc1 (centres unmarked) [A11, 1-(4-methylphenyl)-5-({1-[3-(4H-1,2,4-triazol-3-yl)-1,2,4-oxadiazol-5-yl]ethyl}sulfanyl)-1H-1,2,3,4-tetrazole] | 4
NC(=O)c1c(NC(=O)CSc2ccccc2)sc2c1CCC2 [B2, 2-[2-(phenylsulfanyl)acetamido]-4H,5H,6H-cyclopenta[b]thiophene-3-carboxamide] | 12
CC(Sc1nnc(N2CCOCC2)n1Cc1ccccc1)C(=O)Nc1ccc2[nH]c(=O)[nH]c2c1 (centres unmarked) [B03, 2-{[4-benzyl-5-(morpholin-4-yl)-4H-1,2,4-triazol-3-yl]sulfanyl}-N-(2-oxo-2,3-dihydro-1H-1,3-benzodiazol-5-yl)propanamide] | 39
S=C(NCCSCc1ccco1)NC1CC2CCC1C2 (centres unmarked) [B04, 1-{bicyclo[2.2.1]heptan-2-yl}-3-(2-{[(furan-2-yl)methyl]sulfanyl}ethyl)thiourea] | 9
CC(Sc1nnc(C2CC2)n1Cc1ccccc1)C(=O)Nc1sccc1C(N)=O (centres unmarked) [B4, 2-{2-[(4-benzyl-5-cyclopropyl-4H-1,2,4-triazol-3-yl)sulfanyl]propanamido}thiophene-3-carboxamide] | 4

Same assay, conditions: rank order of aspect ratio among 44 soluble library compounds

Structure (SMILES) | Fusogenicity Rank
O=C(Nc1cc(CSCCOC(=O)C2C3CCCCC32)ccn1)C1C2CCCCC21 (centres unmarked) [2-{[(2-{bicyclo[4.1.0]heptane-7-amido}pyridin-4-yl)methyl]sulfanyl}ethyl bicyclo[4.1.0]heptane-7-carboxylate] | 10
CC1CCCCC1NC(=O)NCCSCc1ccccc1 (centres unmarked) [A10, 1-[2-(benzylsulfanyl)ethyl]-3-(2-methylcyclohexyl)urea] | 4
